The values below come from patent publication US9670227B2, “Thienopyrimidine derivatives, a process for their preparation and pharmaceutical compositions containing them” (LES LABORATOIRES SERVIER, priority 2013, dated 2017).

Each structure is given as a SMILES string.

Chain of Mcl-1 protein (Q07820 whole entry): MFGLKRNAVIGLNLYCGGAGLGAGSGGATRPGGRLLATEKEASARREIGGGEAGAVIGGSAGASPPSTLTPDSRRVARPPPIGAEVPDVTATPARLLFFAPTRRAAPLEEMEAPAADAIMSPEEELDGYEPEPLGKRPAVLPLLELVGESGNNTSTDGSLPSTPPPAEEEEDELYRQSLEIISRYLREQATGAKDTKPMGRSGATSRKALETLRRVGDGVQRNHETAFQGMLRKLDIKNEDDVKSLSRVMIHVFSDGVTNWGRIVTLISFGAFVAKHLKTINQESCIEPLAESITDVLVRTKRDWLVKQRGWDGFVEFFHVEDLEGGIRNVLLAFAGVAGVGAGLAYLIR

The first assay addresses Mcl-1 protein (UniProtKB primary accession number: Q07820) (Homo sapiens, UniProt Q07820). In words: Inhibition of Mcl-1 by fluorescence polarisation, Method 1. Type of assay: binding. The settings on record: fluorescence polarisation test; Method 1, or Method 2 where the value is underlined (underlining not visible); read-out: IC50 (M) Mcl-1 FP. As for the experimental part:
The relative binding potency of each compound was determined via Fluorescence Polarisation (FP).
An 11 point serial dilution of each compound was prepared in DMSO and 2 μl transferred into flat bottomed, low binding, 384-well plate (final DMSO concentration 5%). 38 μl of buffer (10 mM 4-(2-hydroxyethyl)-1-piperazineethanesulfonic acid [HEPES], 150 mM NaCl, 0.05% Tween 20, pH 7.4), containing the Fluorescein labelled ligand (final concentration 1 nM) and Mcl-1 protein (final concentration 5 nM) was then added.
In general terms: In fluorescence polarisation assays a small probe gives low polarisation when free and higher when bound to something large.
As to `COc1ccccc1-c1nccc(COc2ccccc2CC(Oc2ncnc3sc(-c4ccc(F)cc4)c(-c4ccc(OCCN5CCN(C)CC5)c(Cl)c4C)c23)C(=O)OC(C)OC(=O)C(C)C)n1` [Example 861, 1-[(2-methylpropanoyl)oxy]ethyl (2R)-2-{[(5Sa)-5-{3-chloro-2-methyl-4-[2-(4-methylpiperazin-1-yl)ethoxy]phenyl}-6-(4-fluorophenyl)thieno[2,3-d]pyrimidin-4-yl]oxy}-3-(2-{[2-(2-methoxyphenyl)pyrimidin-4-yl]methoxy}phenyl)propanoate], the concentration for half-maximal inhibition (IC50) (usually the midpoint of a concentration-inhibition curve) is 5.77e-07 M.

Consider `CCN(C)CCOc1ccc(-c2c(-c3ccc(F)cc3)sc3ncnc(OC(Cc4ccccc4OCc4ccnc(-c5ccccc5F)n4)C(=O)OCc4oc(=O)oc4C)c23)c(C)c1Cl` [Example 823, (5-methyl-2-oxo-1,3-dioxol-4-yl)methyl (2R)-2-{[(5Sa)-5-(3-chloro-4-{2-[ethyl(methyl)amino]ethoxy}-2-methylphenyl)-6-(4-fluorophenyl)thieno[2,3-d]pyrimidin-4-yl]oxy}-3-(2-{[2-(2-fluorophenyl)pyrimidin-4-yl]methoxy}phenyl)propanoate], for which the IC50 was 1.98e-08 M.

Turning to `Cc1oc(=O)oc1COC(=O)C(Cc1ccccc1OCc1ccnn1C(C)(C)C)Oc1ncnc2sc(-c3ccc(F)cc3)c(-c3ccc(OCCN(C)C)c(Cl)c3C)c12` [Example 820, (5-methyl-2-oxo-1,3-dioxol-4-yl)methyl (2R)-3-{2-[(1-tert-butyl-1H-pyrazol-5-yl)methoxy]phenyl}-2-{[(5Sa)-5-{3-chloro-4-[2-(dimethylamino)ethoxy]-2-methylphenyl}-6-(4-fluorophenyl)thieno[2,3-d]pyrimidin-4-yl]oxy}propanoate], the IC50 was determined as 1.29e-08 M.

Regarding `Cc1c(-c2c(-c3ccc(F)cc3)sc3ncnc(OC(Cc4ccccc4OCc4ccnc(-c5ccccc5F)n4)C(=O)OCOC(=O)C(C)(C)C)c23)ccc(OCCN2CCN(C)CC2)c1Cl` [Example 854, {[(2R)-2-{[(5Sa)-5-{3-chloro-2-methyl-4-[2-(4-methylpiperazin-1-yl)ethoxy]phenyl}-6-(4-fluorophenyl)thieno[2,3-d]pyrimidin-4-yl]oxy}-3-(2-{[2-(2-fluorophenyl)pyrimidin-4-yl]methoxy}phenyl)propanoyl]oxy}methyl 2,2-dimethylpropanoate], the IC50 turned out to be 1.72e-07 M.

In the case of `COCC(=O)OC(C)OC(=O)[C@@H](Cc1ccccc1OCc1ccnc(-c2ccccc2OC)n1)Oc1ncnc2sc(-c3ccc(F)cc3)c(-c3ccc(OCCN4CCN(C)CC4)c(Cl)c3C)c12` (stereo partly drawn) [Example 864, 1-[(methoxyacetyl)oxy]ethyl (2R)-2-{[5-{3-chloro-2-methyl-4-[2-(4-methylpiperazin-1-yl)ethoxy]phenyl}-6-(4-fluorophenyl)thieno[2,3-d]pyrimidin-4-yl]oxy}-3-(2-{[2-(2-methoxyphenyl)pyrimidin-4-yl]methoxy}phenyl)propanoate], the IC50 stood at 2.7e-08 M.

The same assay, now with this note: fluorescence polarisation test; Method 2 values are underlined in the patent (underlining not visible here); read-out: IC50 (M) Mcl-1 FP.
As for `Cc1c(-c2c(-c3ccc(F)cc3)sc3ncnc(OC(Cc4ccccc4OCC(F)(F)F)C(=O)O)c23)ccc(OCCN2CCN(C)CC2)c1Cl` [Example 3, (2R)-2-{[(5Sa)-5-{3-chloro-2-methyl-4-[2-(4-methylpiperazin-1-yl)ethoxy]phenyl}-6-(4-fluorophenyl)thieno[2,3-d]pyrimidin-4-yl]oxy}-3-[2-(2,2,2-trifluoroethoxy)phenyl]propanoic acid], the half-maximal inhibitory concentration (IC50) turned out to be 8.9e-09 M.

As to `Cc1cnccc1-c1nccc(COc2ccccc2CC(Oc2ncnc3sc(-c4ccc(F)cc4)c(-c4ccc(OCCN5CCN(C)CC5)c(Cl)c4C)c23)C(=O)O)n1` [Example 120, (2R)-2-{[(5Sa)-5-{3-chloro-2-methyl-4-[2-(4-methylpiperazin-1-yl)ethoxy]phenyl}-6-(4-fluorophenyl)thieno[2,3-d]pyrimidin-4-yl]oxy}-3-(2-{[2-(3-methylpyridin-4-yl)pyrimidin-4-yl]methoxy}phenyl)propanoic acid], the IC50 came out at 3.8e-09 M.

Staying with this assay, now noted: fluorescence polarisation; Method 1, or Method 2; read-out: IC50 (M) Mcl-1 FP.
On to `CC#Cc1sc2ncnc(O[C@H](Cc3ccccc3OC)C(=O)O)c2c1-c1ccc(CCCN(C)C)c(Cl)c1C` (single isomer, unassigned) [Example 478], for which the IC50 turned out to be 5.3e-07 M.

Take `Cc1c(-c2c(-c3ccc(F)cc3)sc3ncnc(O[C@H](Cc4ccccc4OCc4ccnc(-c5ccccc5O)n4)C(=O)O)c23)ccc(OCCN2CCNCC2)c1Cl` [Example 749, (2R)-2-{[(5Sa)-5-{3-chloro-2-methyl-4-[2-(piperazin-1-yl)ethoxy]phenyl}-6-(4-fluorophenyl)thieno[2,3-d]pyrimidin-4-yl]oxy}-3-(2-{[2-(2-hydroxyphenyl)pyrimidin-4-yl]methoxy}phenyl)propanoic acid]: the IC50 amounted to 8.24e-09 M.

As to `COc1ccccc1C[C@@H](Oc1ncnc2sc(-c3cccc(F)c3F)c(-c3ccc(C#CCN4CCN(C)CC4)c(Cl)c3C)c12)C(=O)O` (single isomer, unassigned) [Example 716], the IC50 came out at 1.5e-06 M.

`COc1ccccc1CC(Oc1ncnc2sc(-c3ccccc3F)c(-c3ccc(OCCN4CCN(C)CC4)c(Cl)c3C)c12)C(=O)O` [Example 566, (2R)-2-{[(5Sa)-5-{3-chloro-2-methyl-4-[2-(4-methylpiperazin-1-yl)ethoxy]phenyl}-6-(2-fluorophenyl)thieno[2,3-d]pyrimidin-4-yl]oxy}-3-(2-methoxyphenyl)propanoic acid]: the IC50 came out at 3e-08 M.

As for `CC(C)=Cc1sc2ncnc(OC(Cc3ccccc3)C(=O)O)c2c1-c1ccc(OCCN2CCN(C)CC2)c(Cl)c1C` [Example 494, (2R)-2-{[(5Sa)-5-{3-chloro-2-methyl-4-[2-(4-methylpiperazin-1-yl)ethoxy]phenyl}-6-(2-methylprop-1-en-1-yl)thieno[2,3-d]pyrimidin-4-yl]oxy}-3-phenylpropanoic acid], the IC50 came out at 4.4e-08 M.

As for `CCc1sc2ncnc(OC(Cc3ccccc3)C(=O)O)c2c1-c1cc(Cl)c(O)c(Cl)c1C` [Example 428, (2R)-2-{[(5Sa)-5-(3,5-dichloro-4-hydroxy-2-methylphenyl)-6-ethylthieno[2,3-d]pyrimidin-4-yl]oxy}-3-phenylpropanoic acid], the IC50 was 7.5e-09 M.

On to `CCc1sc2ncnc(OC(Cc3ccccc3)C(=O)O)c2c1-c1ccc(OCCN2CCN(C)CC2)cc1C` [Example 416, (2R)-2-[(6-ethyl-(5Ra)-5-{2-methyl-4-[2-(4-methylpiperazin-1-yl)ethoxy]phenyl}thieno[2,3-d]pyrimidin-4-yl)oxy]-3-phenylpropanoic acid], for which the IC50 worked out at 7e-07 M.

`COc1nccc(COc2ccccc2CC(Oc2ncnc3sc(-c4ccc(F)c(OCCN(C)C)c4)c(-c4ccc(OC)c(Cl)c4C)c23)C(=O)O)n1` [Example 702, (2R)-2-{[(5Sa)-5-(3-chloro-4-methoxy-2-methylphenyl)-6-{3-[2-(dimethylamino)ethoxy]-4-fluorophenyl}thieno[2,3-d]pyrimidin-4-yl]oxy}-3-{2-[(2-methoxypyrimidin-4-yl)methoxy]phenyl}propanoic acid]: the IC50 was determined as 9.4e-09 M.

Consider `CCc1sc2ncnc(OC(Cc3ccccc3)C(=O)O)c2c1-c1ccc(O)cc1C` [Example 448, (2R)-2-{[6-ethyl-(5Ra)-5-(4-hydroxy-2-methylphenyl)thieno[2,3-d]pyrimidin-4-yl]oxy}-3-phenylpropanoic acid], for which the IC50 is 4.4e-07 M.

On to `CCc1sc2ncnc(OC(Cc3ccccc3)C(=O)O)c2c1-c1cc2c(c(Cl)c1C)OCC(=O)N2` [Example 441, (2R)-2-{[(5Sa)-5-(8-chloro-7-methyl-3-oxo-3,4-dihydro-2H-1,4-benzoxazin-6-yl)-6-ethylthieno[2,3-d]pyrimidin-4-yl]oxy}-3-phenylpropanoic acid], for which the IC50 is 2.7e-08 M.

In the case of `CCc1sc2ncnc(OC(Cc3ccccc3)C(=O)O)c2c1-c1ccc(OCCCn2ccnc2)c(Cl)c1C` [Example 403, (2R)-2-[((5Sa)-5-{3-chloro-4-[3-(1H-imidazol-1-yl)propoxy]-2-methylphenyl}-6-ethylthieno[2,3-d]pyrimidin-4-yl)oxy]-3-phenylpropanoic acid], the IC50 worked out at 1.4e-08 M.

Still in this assay, the particulars now being: partial inhibitors; @ 1 uM test compound.
On to `COc1nccc(COc2ccccc2C[C@@H](Oc2ncnc3sc(-c4ccc(F)c(OCCN(C)C)c4)c(-c4ccc(OC)c(Cl)c4C)c23)C(=O)O)n1` [Example 701, (2R)-2-{[(5Ra)-5-(3-chloro-4-methoxy-2-methylphenyl)-6-{3-[2-(dimethylamino)ethoxy]-4-fluorophenyl}thieno[2,3-d]pyrimidin-4-yl]oxy}-3-{2-[(2-methoxypyrimidin-4-yl)methoxy]phenyl}propanoic acid], for which the “percentage fluorescence polarisation inhibition, Mcl-1 FP” value is listed as 40.75% @ 1 uM.

Still in this assay, the particulars now being: partial inhibitors; @ 10 uM test compound.
Take `CCOC(=O)[C@@H](Cc1ccccc1OCC(F)(F)F)Oc1ncnc2sc(-c3ccc(F)cc3)c(-c3ccc(OCCN4CCN(C)CC4)c(Cl)c3C)c12` [Example 635, ethyl (2R)-2-{[(5Sa)-5-{3-chloro-2-methyl-4-[2-(4-methylpiperazin-1-yl)ethoxy]phenyl}-6-(4-fluorophenyl)thieno[2,3-d]pyrimidin-4-yl]oxy}-3-[2-(2,2,2-trifluoroethoxy)phenyl]propanoate]: the “percentage fluorescence polarisation inhibition, Mcl-1 FP” value is listed as 50.75% @ 10 uM.

The same assay, now with this note: test compound at 10 uM; Method 1, or Method 2 where the value is underlined (underlining not visible).
On to `COCCOC(=O)[C@@H](Cc1ccccc1OCc1ccnn1C(C)(C)C)Oc1ncnc2sc(-c3cccc(F)c3F)c(-c3ccc(OCCN(C)C)c(Cl)c3C)c12` [Example 805, 2-methoxyethyl (2R)-3-{2-[(1-tert-butyl-1H-pyrazol-5-yl)methoxy]phenyl}-2-{[(5Sa)-5-{3-chloro-4-[2-(dimethylamino)ethoxy]-2-methylphenyl}-6-(2,3-difluorophenyl)thieno[2,3-d]pyrimidin-4-yl]oxy}propanoate], for which the “percentage fluorescence polarisation inhibition (Mcl-1 FP), partial inhibitors” value turned out to be 53.5% @ 10 uM.
